Laboratory results published in patent US20100297073A1, “HETEROCYCLIC ANTIVIRAL COMPOUNDS” (priority 2009, published 2010).

What was measured:
[1] = biological target: T1, HCV polymerase (NS5B570n-Con1) (Hepatitis C virus genotype 1b, UniProt Q9WMX2); test: biochemical; design: species or system HCV Con1 strain
T1 construct: contains a 21 amino acid deletion at the C-terminus relative to the full-length HCV polymerase; 6-histidine (N); made in house; host or cells: E. coli BL21(DE) pLysS, plasmid pET17b
Description: HCV NS5B RNA Polymerase Activity
The enzymatic activity of HCV polymerase (NS5B570n-Con1) was measured as the incorporation of radiolabeled nucleotide monophosphates into acid insoluble RNA products. Unincorporated radiolabeled substrate was removed by filtration and scintillant was added to the washed and dried filter plate containing radiolabeled RNA product. The amount of RNA product generated by NS5B570-Con1 at the end of the reaction was directly proportional to the amount of light emitted by the scintillant.
The N-terminal 6-histidine tagged HCV polymerase, derived from HCV Con1 strain, genotype 1b (NS5B570n-Con1) contains a 21 amino acid deletion at the C-terminus relative to the full-length HCV polymerase and was purified from E. coli strain BL21(DE) pLysS. The construct, containing the coding sequence of HCV NS5B Con1 (GenBank accession number AJ242654) was inserted into the plasmid construct pET17b, downstream of a T7 promoter expression cassette and transformed into E. coli. A single colony was grown overnight as a starter culture and later used inoculate 10 L of LB media supplemented with 100 μg/mL ampicillin at 37° C. Protein expression was induced by the addition of 0.25 mM isopropyl-β-D-thiogalactopyranoside (IPTG) when optical density at […] of the culture was between 0.6 and 0.8 and cells were harvested after 16 to 18 h at 30° C. NS5B570n-Con1 was purified to homogeneity using a three-step protocol including subsequent column chromatography on Ni-NTA, SP-Sepharose HP and Superdex 75 resins.
Data was analyzed in Excel® (Microsoft®) and ActivityBase® (idbs®). The reaction in the absence of enzyme was used to determine the background signal, which was subtracted from the enzymatic reactions. […] All data was expressed as a percentage of the positive control.
the data where “Y” corresponds to the relative enzyme activity (in %), “% Min” is the residual relative activity at saturating compound concentration, “% Max” is the relative maximum enzymatic activity, “X” corresponds to the compound concentration, and “S” is the Hill coefficient (or slope).

[2] = tested on: genotype 1b HCV replicon in Huh7 cell line 2209-23; test: HCV replicon assay (Renilla luciferase reporter); assay type: cell-based; details: Hepatitis C virus, Huh-7, 72 h; 2209-23 cells, three days incubation, luciferase readout
in vitro = details: human
HCV = details: cited from earlier work

Compound	melting point [°C]	IC50 [1] [nM]	further results
COc1c(-c2cc3ccccc3c(=O)[nH]2)cc(-c2ccc[nH]c2=O)cc1C(C)(C)C	138 to 140	–	–
COc1ccc(-c2cc(-c3cc4ccc(NS(C)(=O)=O)cc4c(=O)o3)c(OC)c(C(C)(C)C)c2)c(=O)[nH]1	231 to 233	–	–
COc1c(-c2cc(=O)c3cc(NS(C)(=O)=O)ccc3o2)cc(-c2ccc[nH]c2=O)cc1C(C)(C)C [Compound I-1, N-{2-[3-tert-Butyl-2-methoxy-5-(2-oxo-1,2-dihydro-pyridin-3-yl)-phenyl]-4-oxo-4H-chromen-6-yl}-methanesulfonamide]	> 300	3	–
COc1c(C2=CCc3cc(NS(C)(=O)=O)ccc3O2)cc(-c2ccc[nH]c2=O)cc1C(C)(C)C [Compound I-2, N-{2-[3-tert-Butyl-2-methoxy-5-(2-oxo-1,2-dihydro-pyridin-3-yl)-phenyl]-4H-chromen-6-yl}-methanesulfonamide]	–	14	–
COc1c(C2CCc3cc(NS(C)(=O)=O)ccc3O2)cc(-c2ccc[nH]c2=O)cc1C(C)(C)C (centres unmarked) [Compound I-3, N-{2-[3-tert-Butyl-2-methoxy-5-(2-oxo-1,2-dihydro-pyridin-3-yl)-phenyl]-chroman-6-yl}-methanesulfonamide]	–	1	–
CC(C)(C)c1cc(-c2cc3ccc(NS(C)(=O)=O)cc3c(=O)o2)cc(-c2ccc[nH]c2=O)c1 [Compound I-5, N-{3-[3-tert-Butyl-5-(2-oxo-1,2-dihydro-pyridin-3-yl)-phenyl]-1-oxo-1H-isochromen-7-yl}-methanesulfonamide]	> 300	9	–
COc1c(-c2cc3ccc(NS(C)(=O)=O)cc3c(=O)o2)cc(-c2cc(F)c[nH]c2=O)cc1C(C)(C)C [Compound I-6, N-{3-[3-tert-Butyl-5-(5-fluoro-2-oxo-1,2-dihydro-pyridin-3-yl)-2-methoxy-phenyl]-1-oxo-1H-isochromen-7-yl}-methanesulfonamide]	295 to 297	3	–
COc1c(-c2cc3ccccc3c(=O)o2)cc(-c2ccc[nH]c2=O)cc1C(C)(C)C [Compound I-7, 3-[3-tert-Butyl-4-methoxy-5-(1-oxo-1H-isochromen-3-yl)-phenyl]-1H-pyridin-2-one]	253 to 255	2	–
COc1c(C2Cc3ccc(NS(C)(=O)=O)cc3C(=O)O2)cc(-c2ccc[nH]c2=O)cc1C(C)(C)C (centres unmarked) [Compound I-9, N-{3-[3-tert-Butyl-2-methoxy-5-(2-oxo-1,2-dihydro-pyridin-3-yl)-phenyl]-1-oxo-isochroman-7-yl}-methanesulfonamide]	–	6	–
COc1c(C2Cc3ccc(NS(C)(=O)=O)cc3CO2)cc(-c2ccc[nH]c2=O)cc1C(C)(C)C (centres unmarked) [Compound I-10, N-{3-[3-tert-Butyl-2-methoxy-5-(2-oxo-1,2-dihydro-pyridin-3-yl)-phenyl]-isochroman-7-yl}-methanesulfonamide]	170 to 175	1	–
COc1c(-c2cc3ccc(NS(C)(=O)=O)cc3c(=O)[nH]2)cc(-c2ccc[nH]c2=O)cc1C(C)(C)C [Compound I-11, N-{3-[3-tert-Butyl-2-methoxy-5-(2-oxo-1,2-dihydro-pyridin-3-yl)-phenyl]-1-oxo-1,2-dihydro-isoquinolin-7-yl}-methanesulfonamide]	252 to 254	4	IC50 [2]: 1 nM; CC50 (in vitro): 42600 nM
COc1c(-c2nc3ccc(NS(C)(=O)=O)cc3c(=O)[nH]2)cc(-c2ccc[nH]c2=O)cc1C(C)(C)C [Compound I-13, N-{2-[3-tert-Butyl-2-methoxy-5-(2-oxo-1,2-dihydro-pyridin-3-yl)-phenyl]-4-oxo-3,4-dihydro-quinazolin-6-yl}-methanesulfonamide]	228 to 230	9	–
COc1c(-c2cc3ccc(NS(C)(=O)=O)cc3c(=O)o2)cc(-c2c[nH]c(=O)[nH]c2=O)cc1C(C)(C)C [Compound I-14, N-{3-[3-tert-Butyl-5-(2,4-dioxo-1,2,3,4-tetrahydro-pyrimidin-5-yl)-2-methoxy-phenyl]-1-oxo-1H-isochromen-7-yl}-methanesulfonamide]	> 300	1	–
COc1c(-c2cc3ccc(NS(C)(=O)=O)cc3c(=O)o2)cc(-c2cc(F)c[nH]c2=O)cc1C1(C(F)F)CC1 [Compound I-15]	–	0.2	–
NC(=O)c1ncn([C@@H]2O[C@H](CO)[C@@H](O)[C@H]2O)n1 [Ribavirin, 1-((2R,3R,4S,5R)-3,4-Dihydroxy-5-hydroxymethyl-tetrahydro-furan-2-yl)-1H-[1,2,4]triazole-3-carboxylic acid amide]	–	–	effect on serum levels of HCV-RNA (HCV; monotherapy / sole treatment): does not lower serum levels of HCV-RNA; patients with serum amino transferase levels reduced to normal (HCV; monotherapy): 40%
